Data reported in patent publication US4735953A, “Pharmaceutical preparation for learning stimulation and memory improvement” (priority 1986, dated 1988).
Structures can show the parent of a compound that is named as a salt.

Tests used:
[1] = tested on: learning ability of mice in a shuttle chamber; assay: Learning ability of mice in a shuttle chamber; assay type: in vivo, mouse; details: mice
[2] = tested on: cerebral cortex of rabbits; assay: Asymmetry factor by induced potential in the hearing zone of the cerebral cortex; assay type: in vivo, rabbit; details: hypodermally 3 mg/kg, control 0.26 ± 0.03
Experimental: In the third series of experiments the effect of the preparation according to the present invention on the functional brain asymmetry was studied. The experiments were carried out on rabbits with electrodes implanted in the brain. The electrodes under nembutal narcosis (40 mg/kg) were implanted strictly symmetrically into the bearing zone of the temporal cortex of the right and left hemispheres on its lateral surface, whereas the indifferent electrode was secured to the nasal bones of a rabbit's skull. The acoustic irritation was applied through earphones. As the acoustic irritation a sound click caused by a square-shaped pulse from an electronic stimulator with a frequency of 0.1-0.2 Hz was used; the click intensity was adjusted within the range of from 5 to 80 Db. The amplification of the taken-off biopotentials was effected on an electroencephalograph; the induced potentials were obtained by means of an analyzer. 100 experiments on 20 animals were thus conducted; the interval between experiments on one animal was 7 days. The amplitude and form of the induced potential were determined. The asymmetry factor (Kas) was calculated by the formula: [formula] Ar --amplitude of the induced potential of the […] hemisphere, μV;
A1 --amplitude of the induced potential of the left hemisphere.
The test preparations were administered hypodermally in the form of 0.5-1.5% aqueous solutions 20 minutes before the beginning of the measurements.

[3] = hypodermally 30 mg/kg, 12 day (retention)
[4] = hypodermally 100 mg/kg, 1st day
[5] = hypodermally 100 mg/kg, 12 day (retention)
[6] = hypodermally 300 mg/kg, 1st day
[7] = hypodermally 300 mg/kg, 12 day (retention)
[8] = per os 300 mg/kg, 12 day (retention)

With CC(C)(CO)[C@@H](O)C(=O)NCCCC(=O)O [Calcium homopantothenate, calcium salt of homopantothenic acid] the “learning (in words)” value ([1]; 100 mg/kg) was “improving effect on learning only in a high dose”, the “effect of hypodermal vs per os administration (in words)” value ([1]; hypodermal vs per os) was “substantially more pronounced effect than its per os administration” and the “% of avoidance reactions, group I” value ([1]; hypodermally 30 mg/kg, 1st day) was 21%. For the same compound, the “% of avoidance reactions, group II” value ([1]; hypodermally 30 mg/kg, 1st day) was 23%, the “% of avoidance reactions, group III” value ([1]; hypodermally 30 mg/kg, 1st day) was 40% and the “% of avoidance reactions, group IV” value ([1]; hypodermally 30 mg/kg, 1st day) was 55%. For the same compound, the “% of avoidance reactions, group V” value ([1]; hypodermally 30 mg/kg, 1st day) was 58%, the “% of avoidance reactions, group VI” value ([1]; hypodermally 30 mg/kg, 1st day) was 60% and the “% of avoidance reactions, group I” value [1, 3] was 55%. For the same compound, the “% of avoidance reactions, group II” value [1, 3] was 80%, the “% of avoidance reactions, group III” value [1, 3] was 82% and the “% of avoidance reactions, group IV” value [1, 3] was 85%. For the same compound, the “% of avoidance reactions, group V” value [1, 3] was 84%, the “% of avoidance reactions, group VI” value [1, 3] was 88% and the “% of avoidance reactions, group I” value [1, 4] was 20%. The “% of avoidance reactions, group II” value [1, 4] was 31%, the “% of avoidance reactions, group III” value [1, 4] was 40% and the “% of avoidance reactions, group IV” value [1, 4] was 55%. For the same compound, the “% of avoidance reactions, group V” value [1, 4] was 58%, the “% of avoidance reactions, group VI” value [1, 4] was 60% and the “% of avoidance reactions, group I” value [1, 5] was 60%. The “% of avoidance reactions, group II” value [1, 5] was 90%, the “% of avoidance reactions, group III” value [1, 5] was 90% and the “% of avoidance reactions, group IV” value [1, 5] was 89%. For the same compound, the “% of avoidance reactions, group V” value [1, 5] was 90%, the “% of avoidance reactions, group VI” value [1, 5] was 88% and the “% of avoidance reactions, group I” value [1, 6] was 21%. For the same compound, the “% of avoidance reactions, group II” value [1, 6] was 32%, the “% of avoidance reactions, group III” value [1, 6] was 40% and the “% of avoidance reactions, group IV” value [1, 6] was 50%. The “% of avoidance reactions, group V” value [1, 6] was 51%, the “% of avoidance reactions, group VI” value [1, 6] was 55% and the “% of avoidance reactions, group I” value [1, 7] was 53%. For the same compound, the “% of avoidance reactions, group II” value [1, 7] was 75%, the “% of avoidance reactions, group III” value [1, 7] was 76% and the “% of avoidance reactions, group IV” value [1, 7] was 76%. The “% of avoidance reactions, group V” value [1, 7] was 74%, the “% of avoidance reactions, group VI” value [1, 7] was 74% and the “% of avoidance reactions, group I” value ([1]; per os 300 mg/kg, 1st day) was 21%. The “% of avoidance reactions, group II” value ([1]; per os 300 mg/kg, 1st day) was 22%, the “% of avoidance reactions, group III” value ([1]; per os 300 mg/kg, 1st day) was 32% and the “% of avoidance reactions, group IV” value ([1]; per os 300 mg/kg, 1st day) was 42%. The “% of avoidance reactions, group V” value ([1]; per os 300 mg/kg, 1st day) was 43%, the “% of avoidance reactions, group VI” value ([1]; per os 300 mg/kg, 1st day) was 51% and the “% of avoidance reactions, group I” value [1, 8] was 50%. The “% of avoidance reactions, group II” value [1, 8] was 72%, the “% of avoidance reactions, group III” value [1, 8] was 73% and the “% of avoidance reactions, group IV” value [1, 8] was 78%. For the same compound, the “% of avoidance reactions, group V” value [1, 8] was 77% and the “% of avoidance reactions, group VI” value [1, 8] was 80%.
COc1ccc2c3c1O[C@H]1C[C@@H](O)C=C[C@@]31CCN(C)C2 [Galantamine] was tested, and the “Asymmetry factor, Preparation” value [2] was 0.19 ± 0.03.
